From patent US9896440B2, “Aryl substituted heterocyclyl sulfones” (GRÜNENTHAL GMBH, priority 2014, dated 2018) come the findings set out here.

T1 sequence (Q00975 whole entry): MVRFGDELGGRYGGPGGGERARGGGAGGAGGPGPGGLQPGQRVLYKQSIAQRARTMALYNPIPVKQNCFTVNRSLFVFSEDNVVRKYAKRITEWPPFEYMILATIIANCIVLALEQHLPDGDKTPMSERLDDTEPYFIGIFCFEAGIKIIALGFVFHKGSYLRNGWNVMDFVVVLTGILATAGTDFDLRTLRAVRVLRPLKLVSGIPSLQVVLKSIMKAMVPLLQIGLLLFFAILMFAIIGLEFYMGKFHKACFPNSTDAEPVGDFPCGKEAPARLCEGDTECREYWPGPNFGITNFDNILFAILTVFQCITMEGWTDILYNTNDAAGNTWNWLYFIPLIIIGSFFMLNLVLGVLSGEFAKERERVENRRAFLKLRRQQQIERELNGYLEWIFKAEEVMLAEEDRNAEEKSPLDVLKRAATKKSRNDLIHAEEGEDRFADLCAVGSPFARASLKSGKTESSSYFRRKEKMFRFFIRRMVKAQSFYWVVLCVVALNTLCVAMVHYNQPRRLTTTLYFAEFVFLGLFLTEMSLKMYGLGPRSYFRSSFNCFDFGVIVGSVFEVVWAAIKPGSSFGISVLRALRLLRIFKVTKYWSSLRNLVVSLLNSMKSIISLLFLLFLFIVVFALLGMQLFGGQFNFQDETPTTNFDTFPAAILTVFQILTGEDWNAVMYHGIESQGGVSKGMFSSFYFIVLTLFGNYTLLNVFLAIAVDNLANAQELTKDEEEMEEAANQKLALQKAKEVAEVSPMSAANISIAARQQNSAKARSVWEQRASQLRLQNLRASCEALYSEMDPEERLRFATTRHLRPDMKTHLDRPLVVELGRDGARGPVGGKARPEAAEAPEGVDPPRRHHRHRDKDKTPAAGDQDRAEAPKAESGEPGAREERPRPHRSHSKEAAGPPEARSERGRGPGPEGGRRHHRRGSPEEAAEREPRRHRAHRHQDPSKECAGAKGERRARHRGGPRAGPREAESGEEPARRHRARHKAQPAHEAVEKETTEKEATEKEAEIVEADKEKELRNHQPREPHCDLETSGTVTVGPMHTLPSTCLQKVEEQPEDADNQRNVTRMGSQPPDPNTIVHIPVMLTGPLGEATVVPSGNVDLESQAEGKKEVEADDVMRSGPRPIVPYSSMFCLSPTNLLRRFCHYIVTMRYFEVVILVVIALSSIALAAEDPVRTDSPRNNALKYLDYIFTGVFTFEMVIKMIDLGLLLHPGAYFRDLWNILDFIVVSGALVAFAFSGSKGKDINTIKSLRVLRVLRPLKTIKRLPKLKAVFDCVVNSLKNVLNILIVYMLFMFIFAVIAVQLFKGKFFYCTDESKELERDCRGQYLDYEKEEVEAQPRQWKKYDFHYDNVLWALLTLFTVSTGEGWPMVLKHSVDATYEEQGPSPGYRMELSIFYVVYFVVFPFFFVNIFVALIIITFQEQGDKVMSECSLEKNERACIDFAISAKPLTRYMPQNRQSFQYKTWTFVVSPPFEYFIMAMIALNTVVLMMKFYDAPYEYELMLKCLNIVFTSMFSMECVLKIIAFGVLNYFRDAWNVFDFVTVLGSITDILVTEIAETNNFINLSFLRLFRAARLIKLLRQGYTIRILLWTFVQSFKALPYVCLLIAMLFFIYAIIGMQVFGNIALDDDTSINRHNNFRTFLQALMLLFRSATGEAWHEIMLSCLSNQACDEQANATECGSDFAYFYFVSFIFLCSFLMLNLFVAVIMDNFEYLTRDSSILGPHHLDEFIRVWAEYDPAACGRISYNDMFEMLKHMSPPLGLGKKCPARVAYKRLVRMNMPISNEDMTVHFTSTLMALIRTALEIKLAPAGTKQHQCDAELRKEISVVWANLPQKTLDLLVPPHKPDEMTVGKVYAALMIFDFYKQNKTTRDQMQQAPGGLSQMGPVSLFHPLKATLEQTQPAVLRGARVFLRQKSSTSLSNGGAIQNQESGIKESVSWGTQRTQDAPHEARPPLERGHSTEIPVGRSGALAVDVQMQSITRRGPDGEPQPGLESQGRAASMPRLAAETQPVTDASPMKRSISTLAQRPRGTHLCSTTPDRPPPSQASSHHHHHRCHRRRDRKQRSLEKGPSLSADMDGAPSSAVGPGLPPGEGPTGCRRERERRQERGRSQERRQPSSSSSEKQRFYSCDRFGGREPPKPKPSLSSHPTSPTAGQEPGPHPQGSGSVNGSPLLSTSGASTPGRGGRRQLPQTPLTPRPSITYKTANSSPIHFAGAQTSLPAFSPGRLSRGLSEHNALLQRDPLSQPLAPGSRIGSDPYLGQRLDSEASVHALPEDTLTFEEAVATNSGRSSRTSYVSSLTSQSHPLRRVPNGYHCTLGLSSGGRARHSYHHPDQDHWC

The first assay addresses T1, Human CaV2.2 channels (Homo sapiens, UniProt Q00975).
T1 construct: expressed in transfected cells; Kir2.3 also stably co-expressed
Put plainly: Fluorescence assay for CaV2.2 channels using potassium depolarization to induce channel opening (FLIPR, Fluo 4). In kind it is cell-based. The conditions noted are these: 3 μM test compound, 30 mM KCl assay buffer (inactivated channel state), HEK293 cells. An excerpt:
In the process, the Ca^2+ influx is quantified in the FLIPR assay with the aid of a Ca^2+-sensitive dye (type Fluo-4, Molecular Probes Europe BV, Leiden, the Netherlands) in a fluorescent imaging plate reader (FLIPR 3, Molecular Devices, Sunnyvale, USA), as described hereinafter.
Human CaV2.2 channels were stably expressed in HEK293 cells together with alpha2-delta and beta subunits of voltage gated calcium channels. In addition, an inwardly rectifying potassium channel (Kir2.3) was stably expressed in these cells to augment control of the cell membrane potential by the concentration of extracellular potassium ions. Raise of the extracellular potassium concentration leads to depolarization of the membrane potential and thus regulates the voltage dependent state of CaV2.2 channels. For preparation, cells were seeded in black poly-D-lysine coated 96-well plates (Becton Dickinson, Biocoat 4640) in 100 μL medium [500 mL DMEM/F-12 plus Glutamax (Invitrogen 31331-093) plus 5.5 mL MEM NEAA 100× (Invitrogen 11140-035) plus 50 mL FBS decomplemented (Invitrogen 10270-106) plus 200 μg/mL Geneticin (Invitrogen 10131-027) plus 50 μg/mL Hygromycin B (Invitrogen 10687-010) plus 2 μg/mL Blasticidin (anti-bl5b Invivo-Gen) plus 0.2 μg/mL Puromycin (A 11138-03)] at a cell density of 30.000 cells per well. Plates were incubated at 37° C. (5% CO2) for 20 to 23 h. On the day of experiment medium was discarded and cells were loaded with Fluo 4 by addition of 100 μL of basic assay buffer (10 mM HEPES, 1 mM KCl, 149 mM NaCl, 0.8 mM CaCl2, 1.7 mM MgCl2, 10 mM Glucose, 0.1% BSA. pH 7.4) containing 2 μM Fluo 4 (Molecular Probes; F-14201), 0.01% pluronic acid (Molecular Probes; P-6866) and 2.5 mM probenecid (Molecular Probes; P36400). Cells were incubated in the dark at 25° C. for 60 min. Then dye containing buffer was discarded and 100 μL basic (1 mM KCl) or alternative (30 mM KCl) assay buffer was added. The alternative assay buffer contained altered concentrations of KCl (30 mM) and NaCl (120 mM) and was used in order to promote the inactivated channel state. After that 25 μL of basic or alternative assay buffer with or without test compound were added and cells were incubated again in the dark at 25° C. for 15 min. Fluorescence intensity was measured on a FLIPR 3 instrument (Molecular Devices Corp., Sunnyvale, Calif.) with excitation at 480 nm and emission at 535 nm. After continuously reading fluorescence for 30 sec, 50 μL of basic assay buffer containing 210 mM KCl (NaCl omitted) were added for depolarization. Peak fluorescent signal intensity was determined and the amplitude of the peak signal, normalized to base line, was used to measure channel inhibition by test compounds.
As for `CC1(S(=O)(=O)c2cccc(C(F)(F)F)c2)CCOC(c2ccc(S(C)(=O)=O)c(S(C)(=O)=O)c2)C1` (single isomer, unassigned) [SC-133, 2-[3,4-Bis(methylsulfonyl)-phenyl]-4-methyl-4-[[3-(trifluoromethyl)phenyl]sulfonyl]-tetrahydro-pyran], the “Activity Category: %-Inhib (CaV2.2) @3 μM @30 mM KCl” value (from here on “Activity Category: %-Inhib”) is recorded as “A (%-Inhibition >95%)”.
Consider `CC1(S(=O)(=O)c2cccc(C(F)(F)F)c2)CCOC(c2ccc(-n3cncn3)cc2)C1` (single isomer, unassigned) [SC-135, 1-[4-[4-Methyl-4-[[3-(trifluoromethyl)phenyl]sulfonyl]-tetrahydro-pyran-2-yl]-phenyl]-1H-[1,2,4]triazole], for which the “Activity Category: %-Inhib” value is “A (%-Inhibition >95%)”.
Regarding `CC1(S(=O)(=O)c2cccc(C(F)(F)F)c2)CCOC(c2ccc(F)c(C(N)=O)c2)C1` (single isomer, unassigned) [SC-138, 2-Fluoro-5-[4-methyl-4-[[3-(trifluoromethyl)phenyl]sulfonyl]-tetrahydro-pyran-2-yl]-benzamide], the “Activity Category: %-Inhib” value is “C (%-Inhibition >40% up to ≦75%)”.
Turning to `CC1(S(=O)(=O)c2cccc(C(F)(F)F)c2)CCOC(c2ccc(F)c(C(N)=O)c2)C1` (single isomer, unassigned) [SC-139, 2-Fluoro-5-[4-methyl-4-[[3-(trifluoromethyl)phenyl]sulfonyl]-tetrahydro-pyran-2-yl]-benzamide], the “Activity Category: %-Inhib” value is reported as “B (%-Inhibition >75% up to ≦95%)”.
Turning to `CC1(S(=O)(=O)c2cccc(C(F)(F)F)c2)CCOC(COc2ccc(S(C)(=O)=O)cc2F)C1` (single isomer, unassigned) [SC-149, 2-[(2-Fluoro-4-methylsulfonyl-phenoxy)-methyl]-4-methyl-4-[[3-(trifluoromethyl)phenyl]sulfonyl]-tetrahydro-pyran], the “Activity Category: %-Inhib” value is reported as “A (%-Inhibition >95%)”.
Consider `CC1(S(=O)(=O)c2cccc(C(F)(F)F)c2)CCOC(COc2ccc(S(C)(=O)=O)c(F)c2)C1` (single isomer, unassigned) [SC-151, 2-[(3-Fluoro-4-methylsulfonyl-phenoxy)-methyl]-4-methyl-4-[[3-(trifluoromethyl)phenyl]sulfonyl]-tetrahydro-pyran], for which the “Activity Category: %-Inhib” value is reported as “A (%-Inhibition >95%)”.
Turning to `CC1(S(=O)(=O)c2cccc(C(F)(F)F)c2)COC(c2ccc(Cl)cc2)C1` (stereo not drawn) [SC-101, 2-(4-Chlorophenyl)-4-methyl-4-[[3-(trifluoromethyl)phenyl]sulfonyl]-tetrahydro-furan], the “Activity Category: %-Inhib” value is “A (%-Inhibition >95%)”.
Same read-out and setting: with `CC1(S(=O)(=O)c2cccc(C(F)(F)F)c2)COC(c2ccc(Cl)cc2)C1` (stereo not drawn) [SC-102, 2-(4-Chlorophenyl)-4-methyl-4-[[3-(trifluoromethyl)phenyl]sulfonyl]-tetrahydro-furan] the entry was “B (%-Inhibition >75% up to ≦95%)”; with `CC1(S(=O)(=O)c2cccc(C(F)(F)F)c2)COC(c2ccc(Cl)cc2)C1` (stereo not drawn) [SC-103, 2-(4-Chlorophenyl)-4-methyl-4-[[3-(trifluoromethyl)phenyl]sulfonyl]-tetrahydro-furan], “A (%-Inhibition >95%)”.
On the same count and under the same terms, the same measure for `CC1(S(=O)(=O)c2cccc(C(F)(F)F)n2)CCOC(c2ccc(Cl)cc2)C1` (stereo not drawn) [SC-105, 2-[[2-(4-Chlorophenyl)-4-methyl-tetrahydro-pyran-4-yl]sulfonyl]-6-(trifluoromethyl)-pyridine]: “A (%-Inhibition >95%)”.
Consider `CC1(S(=O)(=O)c2cccc(C(F)(F)F)n2)CCOC(c2ccc(Cl)cc2)C1` (stereo not drawn) [SC-106, 2-[[2-(4-Chlorophenyl)-4-methyl-tetrahydro-pyran-4-yl]sulfonyl]-6-(trifluoromethyl)-pyridine], for which the “Activity Category: %-Inhib” value is listed as “B (%-Inhibition >75% up to ≦95%)”.
Still for that read-out and setting: with `CC1(S(=O)(=O)c2cccc(C(F)(F)F)n2)CCOC(c2ccc(Cl)cc2)C1` (stereo not drawn) [SC-107, 2-[[2-(4-Chlorophenyl)-4-methyl-tetrahydro-pyran-4-yl]sulfonyl]-6-(trifluoromethyl)-pyridine] the entry was “B (%-Inhibition >75% up to ≦95%)”; with `CCc1ccc(C(F)(F)F)cc1S(=O)(=O)C1CCOC(c2ccc(Cl)cc2)C1` (stereo not drawn) [SC-110, 2-(4-Chlorophenyl)-4-[[2-ethyl-5-(trifluoromethyl)-phenyl]sulfonyl]-tetrahydro-pyran], “B (%-Inhibition >75% up to ≦95%)”.
Same read-out and setting: the same measure for `CCc1ccc(C(F)(F)F)cc1S(=O)(=O)C1CCOC(c2ccc(Cl)cc2)C1` (stereo not drawn) [SC-111, 2-(4-Chlorophenyl)-4-[[2-ethyl-5-(trifluoromethyl)-phenyl]sulfonyl]-tetrahydro-pyran]: “C (%-Inhibition >40% up to ≦75%)”.

The same assay, now with this note: HEK293, 3 μM test compound, 30 mM KCl assay buffer (inactivated channel state), HEK293 cells; read-out: Activity Category: %-Inhib (CaV2.2) @3 μM @30 mM KCl.
Consider `CC1(S(=O)(=O)c2cccc(C(F)(F)F)c2)CCOC(Cc2ccc(Cl)cc2)C1` (single isomer, unassigned) [SC-130, 2-[(4-Chlorophenyl)-methyl]-4-methyl-4-[[3-(trifluoromethyl)phenyl]sulfonyl]-tetrahydro-pyran], for which the inhibition at 3 µM is 75 to 95%.
In the case of `CC1(S(=O)(=O)c2cccc(C(F)(F)F)c2)CCOC(c2ccc(S(C)(=O)=O)c(S(C)(=O)=O)c2)C1` (single isomer, unassigned) [SC-132, 2-[3,4-Bis(methylsulfonyl)-phenyl]-4-methyl-4-[[3-(trifluoromethyl)phenyl]sulfonyl]-tetrahydro-pyran], the inhibition at 3 µM lay within 75 to 95%.
The same measure, in the same setting: the same measure for `CC1(S(=O)(=O)c2cccc(C(F)(F)F)c2)CCOC(c2ccc(-n3cncn3)cc2)C1` (single isomer, unassigned) [SC-134, 1-[4-[4-Methyl-4-[[3-(trifluoromethyl)phenyl]sulfonyl]-tetrahydro-pyran-2-yl]-phenyl]-1H-[1,2,4]triazole]: 75 to 95%; for `CC1(S(=O)(=O)c2cccc(C(F)(F)F)c2)CCOC(c2ccc(F)c(C#N)c2)C1` (single isomer, unassigned) [SC-136, 2-Fluoro-5-[4-methyl-4-[[3-(trifluoromethyl)phenyl]sulfonyl]-tetrahydro-pyran-2-yl]-benzonitrile]: above 95%.
On the same count and under the same terms, the same measure for `CC1(S(=O)(=O)c2cc(F)cc(C(F)(F)F)c2)CCOC(c2ccc(S(C)(=O)=O)cc2)C1` (single isomer, unassigned) [SC-142, 4-[[3-Fluoro-5-(trifluoromethyl)-phenyl]sulfonyl]-4-methyl-2-(4-methylsulfonyl-phenyl)-tetrahydro-pyran]: 75 to 95%; for `CC1(S(=O)(=O)c2cccc(C(F)(F)F)c2)CCOC(COc2ccc(S(C)(=O)=O)cc2F)C1` (single isomer, unassigned) [SC-148, 2-[(2-Fluoro-4-methylsulfonyl-phenoxy)-methyl]-4-methyl-4-[[3-(trifluoromethyl)phenyl]sulfonyl]-tetrahydro-pyran]: 75 to 95%; for `CC1(S(=O)(=O)c2cccc(C(F)(F)F)c2)CCOC(COc2ccc(S(C)(=O)=O)c(F)c2)C1` (single isomer, unassigned) [SC-150, 2-[(3-Fluoro-4-methylsulfonyl-phenoxy)-methyl]-4-methyl-4-[[3-(trifluoromethyl)phenyl]sulfonyl]-tetrahydro-pyran]: 75 to 95%.
Still for that read-out and setting: with `CC1(S(=O)(=O)c2cccc(C(F)(F)F)c2)COC(c2ccc(Cl)cc2)C1` (stereo not drawn) [SC-100, 2-(4-Chlorophenyl)-4-methyl-4-[[3-(trifluoromethyl)phenyl]sulfonyl]-tetrahydro-furan] the figure was 75 to 95%; with `CC1(S(=O)(=O)c2cccc(C(F)(F)F)n2)CCOC(c2ccc(Cl)cc2)C1` (stereo not drawn) [SC-104, 2-[[2-(4-Chlorophenyl)-4-methyl-tetrahydro-pyran-4-yl]sulfonyl]-6-(trifluoromethyl)-pyridine], 75 to 95%.
For `Cc1ccc(C(F)(F)F)cc1S(=O)(=O)C1CCOC(c2ccc(Cl)cc2)C1` (stereo not drawn) [SC-108, 2-(4-Chlorophenyl)-4-((2-methyl-5-(trifluoromethyl)phenyl)sulfonyl)tetrahydro-2H-pyran], the inhibition at 3 µM lay within 75 to 95%.
